What was measured:
[1] = test system: W303-1A; assay: Growth inhibition of wild-type yeast W303-1A in YEPD with 1.5 M NaCl (OD 600); type: cell-based, Saccharomyces cerevisiae
Method: (§1) Transformants growing on high salt plates were picked and grown in 18×150 mm glass culture tubes containing 10 ml liquid YEPD medium or liquid YEPD medium with 1.5 M NaCl. These tubes were inoculated with approximately 10^5 cells and cultured at 30° C. on a roller bottle. Growth rates were recorded in terms of optical density values at various times after inoculation. Growth rates were also monitored in 96-well plates using the indicator dye Alamar Blue (BioSource International, Camarillo, Calif.) as previously described by Klein et al., (1997b). In 96-well plate experiments, each well contained approximately 10^4 cells (in 20 ul medium) inoculated into 180 ul liquid YEPD medium or liquid YEPD medium containing 1.5 M NaCl. These plates were then incubated at 30° C. for 24 or 48 hours. At that time, 20 ul Alamar Blue solution was added to each well and the color allowed to develop for 5-30 minutes. Color changes in each well were noted after visual inspection and recorded.
Nitrophenide, a known inhibitor of MIPDH (Schmatz 1997), was used to validate the assay. The Δgpd1transformed with pYES21/m1pdh was grown in liquid YEPD medium, either supplemented with 1.5 M NaCal or not and containing one of 3 concentrations of nitrophenide (Aldrich Chemical Co.) dissolved in DMSO. Experiments were conducted in glass culture tubes prepared and processed as described above. […]

[2] = test system: Δgpd1-pYES2/m1pdh (Saccharomyces cerevisiae Δgpd1 expressing Eimeria tenella m1pdh); assay: Growth inhibition of yeast transformant Δgpd1-pYES2/m1pdh in liquid YEPD with or without 1.5 M NaCl (OD 600); type: cell-based
Method: as §1
(§2) Nitrophenide, a known inhibitor of MIPDH (Schmatz 1997), was used to validate the assay. The Δgpd1transformed with pYES21/m1pdh was grown in liquid YEPD medium, either supplemented with 1.5 M NaCal or not and containing one of 3 concentrations of nitrophenide (Aldrich Chemical Co.) dissolved in DMSO. Experiments were conducted in glass culture tubes prepared and processed as described above. Growth in nitrophenide-containing media was compared to growth in identical medium lacking nitrophenide by measuring and recording changes at OD 600 nm after 24, 48 or 72 hours in culture as described above.
(§3) Test groups of each sample organism were inoculated into liquid cultures of YEPD and YEPD with 1.5 M NaCl. Rate of growth was estimated by recording OD 600 values at 24 hr intervals. All strains grew equally well in YEPD, but growth rates in YEPD with 1.5 M NaCl were distinctly different between transformants expressing mt1D or m1pdh and controls as shown in FIG. 3.
Nitrophenide was dissolved in DMSO and added to cultures at final concentrations of 1 μM, 2.5 μM or 10 μM. DMSO alone was also tested. Little toxicity was apparent for DMSO or for nitrophenide in YEPD except at 10 μM, a concentration at which slowing of the rate of growth of Δgpd1-pYES2/mt1D and Δgpd1-pYES2/MIPDH was observed as shown in FIG. 4. However, in YEPD with 1.5 M NaCl, nitrophenide was toxic to Δgpd1-pYES2/mt1D and Δgpd1-pYES2/MIPDH at concentrations as low as 2.5 uM and abolishes growth at 10 uM as shown in FIG. 4. Nitrophenide was also toxic to W303-1A under these conditions, but this strain grew more slowly than either of the transformants under salt pressure. The difference in rate of growth made comparisons between strains difficult.

[3] = test system: Δgpd1-pYES2/mt1D (Saccharomyces cerevisiae Δgpd1 expressing E. coli mt1D); assay: Growth inhibition of yeast transformant Δgpd1-pYES2/mt1D in liquid YEPD with or without 1.5 M NaCl (OD 600); type: cell-based
Method: as §1, §2, §3
Nitrophenide was dissolved in DMSO and added to cultures at final concentrations of 1 μM, 2.5 μM or 10 μM. DMSO alone was also tested. […]

[4] = YEPD with 1.5 M NaCl, tested at 1, 2.5 and 10 μM
[5] = YEPD without added NaCl, little toxicity at lower concentrations

O=[N+]([O-])c1cccc(SSc2cccc([N+](=O)[O-])c2)c1 [Nitrophenide, nitrophenide]
toxicity to growth [1]: toxic
concentration that abolishes growth ([2]; YEPD with 1.5 M NaCl): 10 µM
lowest concentration toxic to growth [2, 4]: 2.5 µM
concentration at which slowing of the rate of growth was observed [2, 5]: 10 µM
effect on growth (FIG. 4) ([2]; medium containing 1.5 M NaCl): dramatically suppressed
toxicity compared with 1.5 M NaCl medium (FIG. 4) ([2]; medium with no additional NaCl): reduced
concentration that abolishes growth ([3]; YEPD with 1.5 M NaCl): 10 µM
lowest concentration toxic to growth [3, 4]: 2.5 µM
concentration at which slowing of the rate of growth was observed [3, 5]: 10 µM
